# Source: patent publication US20240391862A1, “(1,4,5-TRISUBSTITUTED-1H-PYRAZOL-3-YL)OXY-2-ALKOXY ALKYL ACIDS AND THEIR DERIVATIVES, THEIR SALTS AND THEIR USE AS HERBICIDAL AGENTS” (Bayer AKtiengesellschaft, priority 2021, published 2024)
# Assays:
# Experiment in all cases: Post-emergence herbicidal effect, greenhouse pot test
# VERPE = type: in vivo, Veronica persica
# Summary of the method: (§1)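 Visual % activity scored roughly 3 weeks post-spray against untreated plants, where 100% means death and 0% equals control. Plants were treated at the one-leaf stage, 2 to 3 weeks after sowing in sandy loam, at 20 to 320 g/ha.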
# ALOMY = type: in vivo, Alopecurus myosuroides
# Summary of the method: as §1
# PHBPU = type: in vivo, Ipomoea purpurea
# Summary of the method: as §1
# VIOTR = type: in vivo, Viola tricolor; conditions: for pest or weed control at 20 g/ha: Viola tricolor, 504 h, read-out: Post-emergence effect against VIOTR in %
# Summary of the method: as §1
# LOLRI = type: in vivo, Lolium rigidum
# Summary of the method: as §1
# POLCO = type: in vivo, Fallopia convolvulus
# Summary of the method: as §1
# KCHSC = type: in vivo; conditions: 320 g/ha
# Summary of the method: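 Greenhouse plants in sandy loam, sprayed post-emergence at the one-leaf stage (2–3 weeks after sowing) with WP or EC formulations in water plus 0.5% additive at 600 l/ha. Rates 20 to 320 g/ha. Activity rated visually after about 3 weeks against untreated controls (0% like control, 100% dead).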
# SETVI = type: in vivo, Setaria viridis
# Summary of the method: as §1
# DIGSA = type: in vivo, Digitaria sanguinalis; conditions: 320 g/ha, visual rating about 3 weeks after treatment
# Summary of the method: as §1
# ABUTH = type: in vivo, Abutilon theophrasti; conditions: visual rating about 3 weeks after treatment
# Summary of the method: as §1
# MATIN = type: in vivo, Tripleurospermum inodorum
# Summary of the method: as §1
# ECHCG = type: in vivo, Echinochloa crus-galli; conditions: for Post-emergence effect against ECHCG: 20 g/ha, visual rating about 3 weeks after treatment
# Summary of the method: as §1
# AVEFA = type: in vivo, Avena fatua; conditions: visual rating about 3 weeks after treatment
# Summary of the method: as §1
# AMARE = type: in vivo, Amaranthus retroflexus; conditions: Amaranthus retroflexus, 504 h, 320 g/ha, visual rating about 3 weeks after treatment, read-out: Post-emergence effect against AMARE
# Summary of the method: as §1
# [1] = 320 g/ha, visual rating about 3 weeks after treatment
Structure (SMILES),Post-emergence effect against VERPE in % (VERPE; 20 g/ha),Post-emergence effect against VERPE in % (VERPE; 80 g/ha),Post-emergence effect against VERPE in % (VERPE; 320 g/ha),Post-emergence effect against ALOMY (ALOMY; [1]),Post-emergence effect against PHBPU in % (PHBPU; 80 g/ha),Post-emergence effect against PHBPU in % (PHBPU; 320 g/ha),Post-emergence effect against VIOTR in % (VIOTR; 80 g/ha),Post-emergence effect against VIOTR in % (VIOTR; 320 g/ha),pest or weed control at 20 g/ha (VIOTR),Post-emergence effect against LOLRI in % (LOLRI; 320 g/ha),Post-emergence effect against POLCO in % (POLCO; 80 g/ha),Post-emergence effect against POLCO in % (POLCO; 320 g/ha),Post-emergence effect against SETVI in % (SETVI; 320 g/ha),Post-emergence effect against ABUTH (ABUTH; 80 g/ha),Post-emergence effect against ABUTH (ABUTH; 320 g/ha),Post-emergence effect against MATIN in % (MATIN; 320 g/ha),Post-emergence effect against ECHCG (ECHCG),Post-emergence effect against ECHCG in % (ECHCG; 80 g/ha),Post-emergence effect against ECHCG in % (ECHCG; 320 g/ha),Post-emergence effect against AVEFA (AVEFA; 80 g/ha),other results
COC(=O)C(OC)Oc1nn(-c2cc(F)ccc2F)c(-c2cncc(F)c2)c1C1CC1 (stereo not shown) [Example I-112],80%,80%,80%,90%,90%,90%,80%,80%,80%,90%,80%,80%,80%,80%,80%,80%,90%,90%,90%,90%,"Post-emergence effect at 20 g/ha against ALOMY in % (ALOMY; 20 g/ha, one-leaf stage, rated visually after about 3 weeks vs untreated controls): 80%; Post-emergence effect against ALOMY (ALOMY; 80 g/ha, visual rating about 3 weeks after treatment): 90%; Post-emergence effect against PHBPU in % (PHBPU; 20 g/ha): 90%; Post-emergence effect against LOLRI in % (LOLRI; 80 g/ha): 90%; pest or weed control at 320 g/ha (KCHSC; 504 h, read-out: Post-emergence effect against KCHSC in %): 80%; Post-emergence effect against SETVI in % (SETVI; 80 g/ha): 80%; Post-emergence effect against DIGSA (DIGSA): 80%; pest or weed control at 20 g/ha (ABUTH; Abutilon theophrasti, 504 h, 20 g/ha, read-out: Post-emergence effect against ABUTH): 80%; Post-emergence effect against MATIN in % (MATIN; 20 g/ha): 80%; Post-emergence effect against MATIN in % (MATIN; 80 g/ha): 80%; Post-emergence effect against AVEFA (AVEFA; 320 g/ha): 90%; pest or weed control at 20 g/ha (AVEFA; Avena fatua, 504 h, 20 g/ha, read-out: Post-emergence effect against AVEFA): 90%"
COC(Oc1nn(-c2cc(F)ccc2F)c(-c2cncc(F)c2)c1C1CC1)C(=O)O (stereo not shown) [Example I-110],80%,80%,90%,100%,90%,90%,80%,80%,80%,90%,80%,90%,80%,90%,90%,80%,90%,90%,90%,90%,"pest or weed control at 80 g/ha (ALOMY; Alopecurus myosuroides, 504 h, 80 g/ha, visual rating about 3 weeks after treatment, read-out: Post-emergence effect against ALOMY): 80%; pest or weed control at 20 g/ha (PHBPU; Ipomoea purpurea, 504 h, 20 g/ha, read-out: Post-emergence effect against PHBPU in %): 90%; pest or weed control at 20 g/ha (POLCO; Fallopia convolvulus, 504 h, 20 g/ha, read-out: Post-emergence effect against POLCO in %): 80%; Post-emergence effect against KCHSC in % (KCHSC): 80%; pest or weed control at 80 g/ha (SETVI; Setaria viridis, 504 h, 80 g/ha, read-out: Post-emergence effect against SETVI in %): 80%; pest or weed control at 320 g/ha (AMARE): 80%; Post-emergence effect against ABUTH (ABUTH; 20 g/ha): 80%; pest or weed control at 80 g/ha (MATIN; Tripleurospermum inodorum, 504 h, 80 g/ha, read-out: Post-emergence effect against MATIN in %): 80%; Post-emergence effect against AVEFA (AVEFA; 320 g/ha): 90%"
